Some test systems named below: 786-0 renal; A549 NSCLC; COLO 205 colon; HOP-92 NSCLC; K-562 leukemia; LOX IMVI melanoma; MDA-MB-231 breast; SNB-19 CNS; SNB-75 CNS; SW-620 colon.
Assay in all cases: NCI anticancer screen, dose series, 48 h

Each structure is given as a SMILES string. Values joined by “and” are separate entries in the source; they are usually repeats but may differ in a detail not shown here. Equal entries are not always repeated.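 Method: 48-hour compound exposure of cells in 96-well plates, five concentrations, linear interpolation of endpoints. GI50 marks 50% less growth. At the TGI there is no net growth.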 A value given as a limit tells only on which side of the number the result lay.

As to `NC(Cc1ccc(O)cn1)C(=O)NC(C(=O)O)c1ccccc1` (stereo not given), the TGI with 786-0 renal, in the test with A549 NSCLC, in the test on COLO 205 colon, in the test on HOP-92 NSCLC, in the test with K-562 leukemia and with LOX IMVI melanoma was above 100 µM in each case. For the same molecule, the TGI in the test with MDA-MB-231 breast, in the test on SNB-19 CNS, with SNB-75 CNS and in the test on SW-620 colon was above 100 µM throughout.
As to `O=S(=O)(O)c1ccc2c(N=Nc3cccc4ccccc34)c(O)ccc2c1`, the TGI with 786-0 renal, in the test with A549 NSCLC, in the test on COLO 205 colon, in the test with HOP-92 NSCLC, in the test on K-562 leukemia and with LOX IMVI melanoma was above 100 µM throughout. The TGI in the test on MDA-MB-231 breast, in the test on SNB-19 CNS, in the test with SNB-75 CNS and in the test with SW-620 colon was above 100 µM each time.
Turning to `CCOC(=O)c1c(N2CCCC2)[nH]c(=O)c(C(c2c(O)c(C(=O)OCC)c(N3CCCC3)[nH]c2=O)C(C)C)c1O`, the TGI in the test on 786-0 renal, in the test on A549 NSCLC, with COLO 205 colon, with HOP-92 NSCLC, with K-562 leukemia and with LOX IMVI melanoma was above 100 µM in each case. The TGI was 64.3 µM in the test on MDA-MB-231 breast, above 100 µM in the test with SNB-19 CNS, 96.5 µM in the test with SNB-75 CNS and above 100 µM with SW-620 colon.
As to `c1ccc(CN2CCC(=NN3CCCCC3)CC2)cc1`, the TGI with 786-0 renal is above 100 µM; in the test on A549 NSCLC it was above 100 µM; with COLO 205 colon, 99.5 µM; in the test with HOP-92 NSCLC, above 100 µM; in the test with K-562 leukemia, above 100 µM; in the test on LOX IMVI melanoma it was above 100 µM. Further, the TGI in the test with MDA-MB-231 breast, in the test on SNB-19 CNS, in the test with SNB-75 CNS and in the test on SW-620 colon was above 100 µM each time.
In the case of `CC12NC(=C(C#N)C#N)C(C#N)=C3NC(N)=C(C#N)C(=C31)Oc1ccccc12` (stereo not given), the TGI with 786-0 renal was above 100 µM; in the test on A549 NSCLC it was above 100 µM; in the test on COLO 205 colon it was above 100 µM; with HOP-92 NSCLC, above 74.1 µM; in the test with K-562 leukemia it was above 100 µM; in the test with LOX IMVI melanoma it was above 100 µM. The TGI in the test with MDA-MB-231 breast, in the test with SNB-19 CNS, in the test on SNB-75 CNS and in the test on SW-620 colon was above 100 µM each time.
Take `O=[N+]([O-])c1cc(Br)cc2cc(Cl)cnc12`: the TGI in the test on 786-0 renal was above 100 µM; in the test with A549 NSCLC, above 100 µM; in the test on COLO 205 colon it was above 100 µM; in the test with HOP-92 NSCLC it was 6.36 µM; in the test with K-562 leukemia it was above 100 µM; with LOX IMVI melanoma, above 100 µM. For the same molecule, the TGI in the test on MDA-MB-231 breast is above 100 µM; with SNB-19 CNS, above 100 µM; in the test with SNB-75 CNS, 92 µM; with SW-620 colon it was 32.8 µM.
As for `c1ccc(-c2cnc(SC(c3ccccc3)c3ccccc3)[nH]2)cc1`, the TGI in the test on 786-0 renal is above 100 µM; in the test on A549 NSCLC it was above 100 µM; with COLO 205 colon it was 44.1 µM; in the test on HOP-92 NSCLC, 54 µM; in the test with K-562 leukemia it was above 100 µM; in the test on LOX IMVI melanoma it was 59 µM. Further, the TGI in the test with MDA-MB-231 breast, in the test on SNB-19 CNS, in the test on SNB-75 CNS and with SW-620 colon was above 100 µM in each case.
For the molecule `CN(C)c1ccc(/C=C/C(=O)c2cc(C(C)(C)C)c(O)c(C(C)(C)C)c2)cc1`, the TGI in the test with 786-0 renal was 8.03 µM; with A549 NSCLC, above 100 µM; with COLO 205 colon, 2.65 µM; with HOP-92 NSCLC, above 100 µM; in the test on K-562 leukemia, above 100 µM; in the test with LOX IMVI melanoma it was above 100 µM. In addition, the TGI in the test on MDA-MB-231 breast is 8.69 µM; in the test with SNB-19 CNS, above 100 µM; with SNB-75 CNS, 0.856 µM; in the test on SW-620 colon, above 100 µM.
On to `CN(C(=O)[C@H](NC(=O)OCc1ccccc1)c1ccccc1)C1CCCCC1N1CCCC1` (stereo not given in full), for which the TGI in the test with 786-0 renal, in the test on A549 NSCLC, in the test on COLO 205 colon, in the test on HOP-92 NSCLC, in the test with K-562 leukemia and with LOX IMVI melanoma was above 100 µM in each case. For the same molecule, the TGI in the test on MDA-MB-231 breast, in the test with SNB-19 CNS, with SNB-75 CNS and in the test with SW-620 colon was above 100 µM each time.
With `Cn1c(N/N=C/c2ccccc2)nc(-c2ccc3c(c2)OCO3)c(C#N)c1=O`, the TGI was above 100 µM in the test with 786-0 renal; above 100 µM in the test with A549 NSCLC; above 100 µM in the test with COLO 205 colon; 67.2 µM in the test with HOP-92 NSCLC; above 100 µM in the test on K-562 leukemia; above 100 µM in the test with LOX IMVI melanoma. Besides, the TGI in the test on MDA-MB-231 breast, with SNB-19 CNS, in the test on SNB-75 CNS and with SW-620 colon was above 100 µM in each case.
Turning to `C=C1C(=O)OC2C1CCC(=C)C1CC(O)C(=C)C12` (stereo not given), the TGI with 786-0 renal worked out at 19.6 µM; with A549 NSCLC, 55.7 µM; in the test on COLO 205 colon, 6.89 µM; with HOP-92 NSCLC it was 11.3 µM; with K-562 leukemia, 21.4 µM; in the test on LOX IMVI melanoma, 20.9 µM. Besides, the TGI is 31.6 µM in the test with MDA-MB-231 breast, 66.6 µM in the test with SNB-19 CNS, 37.3 µM with SNB-75 CNS and 43.6 µM with SW-620 colon.
As for `C[C@@H]1C[C@H]2OC(=O)[C@@]3(C)CCC[C@@](C)([C@@H]23)[C@@]1(O)CCc1ccoc1`, the TGI with 786-0 renal, in the test with A549 NSCLC, in the test with COLO 205 colon, in the test with HOP-92 NSCLC, in the test with K-562 leukemia and in the test on LOX IMVI melanoma was above 100 µM throughout. Besides, the TGI in the test with MDA-MB-231 breast, in the test with SNB-19 CNS, in the test with SNB-75 CNS and in the test on SW-620 colon was above 100 µM each time.
In the case of `Nc1nc(Cl)cc(NCC2(CO)CCCCC2)n1`, the TGI in the test with 786-0 renal, with A549 NSCLC, in the test on COLO 205 colon, in the test on HOP-92 NSCLC, in the test with K-562 leukemia and with LOX IMVI melanoma was above 100 µM throughout. Further, the TGI with MDA-MB-231 breast, with SNB-19 CNS, in the test on SNB-75 CNS and with SW-620 colon was above 100 µM throughout.
As for `O=c1oc2ccc([N+](=O)[O-])cc2nc1/C=C(\O)c1ccccc1`, the TGI in the test with 786-0 renal, with A549 NSCLC, with COLO 205 colon, with HOP-92 NSCLC, with K-562 leukemia and in the test on LOX IMVI melanoma was above 100 µM each time. In addition, the TGI in the test on MDA-MB-231 breast, with SNB-19 CNS, with SNB-75 CNS and with SW-620 colon was above 100 µM in each case.
As for `COc1ccc2c(c1)CC[C@@H]1[C@@H]2CC[C@]2(C)/C(=N/OCCN3CCCC3)CC[C@@H]12`, the TGI came to 3.37 µM with 786-0 renal; 7.7 µM with A549 NSCLC; 3.06 µM in the test with COLO 205 colon; 6.5 µM in the test on HOP-92 NSCLC; 2.58 µM in the test with K-562 leukemia; 3.19 µM in the test with LOX IMVI melanoma. The TGI in the test with MDA-MB-231 breast came to 8.92 µM; with SNB-19 CNS, 28.1 µM; with SNB-75 CNS it was 9.49 µM; in the test with SW-620 colon, 3.68 µM.
For the molecule `COc1c(C)c(C/C=C(\C)CC/C=C(\C)CC/C=C(\C)CCC=C(C)C)c(OC)c(OC)c1OC`, the TGI in the test with 786-0 renal, in the test with A549 NSCLC, in the test on COLO 205 colon, in the test on HOP-92 NSCLC, in the test with K-562 leukemia and with LOX IMVI melanoma was above 100 µM throughout. Moreover, the TGI in the test with MDA-MB-231 breast, in the test with SNB-19 CNS, in the test with SNB-75 CNS and with SW-620 colon was above 100 µM throughout.
For the molecule `Cc1cccc2c(N)c3cccc(C(=O)NCC[N+](C)(C)Cc4ccc([N+](=O)[O-])n4C)c3nc12`, the TGI in the test on 786-0 renal was above 63.9 µM; with A549 NSCLC, above 52.2 µM; with COLO 205 colon, 66.7 µM; with HOP-92 NSCLC, above 100 µM; in the test on K-562 leukemia, above 31.6 µM; in the test on LOX IMVI melanoma, above 64.9 µM. The TGI was above 72.6 µM in the test with MDA-MB-231 breast, above 100 µM in the test on SNB-19 CNS, 43.2 µM in the test on SNB-75 CNS and above 82.2 µM with SW-620 colon.
In the case of `O=C(O)c1cc(N=Nc2ccc([N+](=O)[O-])cc2)ccc1O`, the TGI was above 100 µM in the test with 786-0 renal; above 100 µM in the test with A549 NSCLC; above 100 µM in the test on COLO 205 colon; 56.9 µM with HOP-92 NSCLC; above 100 µM in the test with K-562 leukemia; above 100 µM in the test with LOX IMVI melanoma. Also, the TGI with MDA-MB-231 breast, in the test with SNB-19 CNS, in the test with SNB-75 CNS and in the test with SW-620 colon was above 100 µM throughout.
Consider `O=C(N/N=C(/COc1ccccc1)N=Cc1ccncc1)c1ccncc1`, for which the TGI with 786-0 renal, in the test with A549 NSCLC, in the test with COLO 205 colon, in the test on HOP-92 NSCLC, with K-562 leukemia and in the test on LOX IMVI melanoma was above 100 µM throughout. Besides, the TGI with MDA-MB-231 breast, in the test with SNB-19 CNS, with SNB-75 CNS and in the test on SW-620 colon was above 100 µM in each case.
Take `N/C(=N\N=C\c1cc2ccccc2s1)c1cnccn1`: the TGI in the test on 786-0 renal, in the test on A549 NSCLC, with COLO 205 colon, with HOP-92 NSCLC, with K-562 leukemia and in the test on LOX IMVI melanoma was above 100 µM in each case. Besides, the TGI in the test with MDA-MB-231 breast is above 100 µM; in the test on SNB-19 CNS, above 100 µM; in the test on SNB-75 CNS, 79.3 µM; in the test with SW-620 colon, above 100 µM.
Take `CCN(CC)CCNc1c2ccccc2nc2cccc([N+](=O)[O-])c12`: the TGI in the test on 786-0 renal is 0.0266 µM and 0.0489 µM; with A549 NSCLC, 0.018 µM and 0.0391 µM; in the test with COLO 205 colon, 0.0176 µM; in the test on HOP-92 NSCLC it was 0.0261 µM; with K-562 leukemia, 0.121 µM; with MDA-MB-231 breast, 0.00487 µM. Besides, the TGI is 0.0347 µM with SNB-75 CNS; 0.0395 µM and 0.172 µM in the test on SW-620 colon. Further, the GI50 in the test on LOX IMVI melanoma was 0.0363 µM; in the test on SNB-19 CNS, 0.0166 µM.

The values are drawn from PubChem BioAssay (NCI).
